Biological target: T1, Cdk2(C177A) (Homo sapiens, UniProt P24941, C177A)
T1 construct: made in house; host or cells: E. coli Tuner(DE3)
Experiment: Intact protein mass spectrometry of labelling, Cdk2(C177A)
Assay type: binding
Description: Hs!Cyclin!A2!F!5’![…]!
Hs!Cyclin!A2!R!5’![…]!
Sc!CAK1!R!5’!GAATTCttatgggcttttctaattcttgcaag!
GSTBCdk2" and" GSTBcyclin" A2:! Harvested! cells! were! resuspended! in! 50! mM! HEPES! buffer! (pH7.5)! containing! 150! mM! NaCl,!
10!mM!MgCl2,!2!mM!dithiothreitol!(DTT),!0.5!mg!mLR1!lysozyme,!and!0.01%!Triton!XR100!at!4!˚C!and!incubated!for!30!minutes.!
After! sonication! and! centrifugation! (40! min,! 16000! g),! the! supernatant! was! incubated! for! 1! h! with! glutathioneRSepharose!
beads,! washed! with! lysis! buffer! and! the! desired! protein! eluted! with! 10! mM! GSH! (100! mM! Tris,! pH! 8).! After! incubation! the! deR
sired! protein! was! cleaved! from! the! GST! tag! with! PreScission! protease! (100:1)! at! 4 °C! for! 4! hours,! the! cleaved! GST! tag! was!
removed! with! glutathioneRSepharose! beads.! Cdk2! was! concentrated! and! then! loaded! onto! a! Superdex! 75! (16/60)! column,!
eluting! with! 100! mM! phosphate! buffer! containing! 50! mM! DTT.! Purified! Cdk2! was! concentrated! to! 10! mg! mLR1!and! stored! at!–
80! ˚C.! Cyclin! A2! was! purified! by! glutathioneRSepharose! affinity! as! described! above! with! the! following! amendments:! 100! mM!
MgCl2!was! added! after! GST! cleavage! to! minimise! protein! aggregation! and! gel! filtration! was! performed! with! 50! mM! […]
labelling! reached! completion! (as! monitored! by! fluorescence! quench! assay! and/or! intact! protein! mass! spectrometry).! […]

## C=CC(=O)N1CCN(C(=O)OC(C)(C)C)c2ccccc21 [Acrylamide 1]
  modification of Cdk2(C177A) by intact protein mass spectrometry: unaffected

Source: publication PMC5947712, “High‐Throughput Kinetic Analysis for Target‐Directed Covalent Ligand Discovery” (Angewandte Chemie (International Ed. in English), 2018)
